Structures are written as SMILES.

The test system of test [1] is MCM2, CDK4, Cyclin D1, P21. The test is described as follows: Western Blot of tumor body cyclin in tumor bearing nude mice. The settings on record: nude mouse tumor body, compared to the Control group. It is filed as in vivo, BALB/c nude mice. The text has this:
The expression of nude mice tumor body cyclin and EMT related proteins in tumor bearing nude mice after intervention with DDP, CA, BDMC, and combined administration was shown in FIG. 29. In the figure, 1 represented the Control group; 2 represented the DDP group; 3 represented the CA group; 4 represented the BDMC group; and 5 represented the CA+BDMC group.

For the next test, the system named is Hey ovarian cancer cell. The test is described as follows: Tumor bearing nude mouse model (tumor volume, tumor inhibition rate, body weight). It is filed as in vivo, BALB/c nude mice. The following applies: intraperitoneal, 15 days; DDP 3 mg/kg, CA 80 mg/kg, BDMC 5 mg/kg; compared to the Control group, P<0.01. As to the method:
Newly housed BALB/c nude mice were placed in an SPF grade feeding room laminar flow rack for adaptive feeding for one week, and the experimental animal status was adjusted. A Hey ovarian cancer cell was cultivated to the logarithmic growth stage, and the original culture medium was discarded. The Hey ovarian cancer cell was washed with PBS buffer, added with 0.1% trypsin digestion for digestion, added with the corresponding culture medium to terminate digestion, centrifuged at 1000 rpm for 3 minutes, and added with PBS buffer to prepare a cell suspension. The cell was counted using a hemocytometer, and the cell concentration was quantified to 5×10^7 cells/mL. After grasping and fixing the nude mouse with the left hand, and the skin at a needle inserting site on the right forelimb axilla of the nude mouse was disinfected with a 75% alcohol cotton ball. A disposable 1 mL syringe was used to inject approximately 100 μL of cell suspension subcutaneously into the posterior axilla of the right forelimb in an oblique stabbing inserting needle mode, so that each nude mouse was injected with approximately 5×10^6 cells. After vaccination, the needle inserting site was gently pressed with a cotton ball to prevent the cell suspension from leaking from a needle hole. The growth status of tumors at the vaccination site of nude mice was observed daily. After about one week, if the tumors at the vaccination site were compacted and appeared light red in color, it could be considered as successful tumor growth. At this time, the nude mice were randomly divided into 5 groups, a Control group intraperitoneally injected with physiological saline for 1 day each time; a DDP group intraperitoneally injected with cisplatin, 3 mg/kg, 3 d/time; a CA group intraperitoneally injected with CA, 80 mg/kg, 1 d/time; a BDMC group intraperitoneally injected with BDMC, 5 mg/kg, 1 d/time; a CA+BDMC group intraperitoneally injected with CA 80 mg/kg+BDMC 5 mg/kg, 1 d/time, 8 animals per group. A tumor length (L) and a […] were measured with a vernier caliper every 3 days to calculate a tumor volume. After 15 days of administration, nude mice were euthanized by dislocation of cervical vertebra, and tumor tissue was dissected. The tumor weight was weighed to calculate the tumor inhibition rate. The tumor tissue was stored in two batches at −80° C. and fixed with 4% paraformaldehyde.

For the compound `N.N.[Cl][Pt][Cl]` [DDP, cisplatin, reference compound], in test [1], the “expression of CDK4 protein (Western Blot)” value is on record as “significantly decreased”. Besides, in the test on Hey ovarian cancer cell, the tumor inhibition rate entry is recorded as “significantly increased” and the tumor volume size entry is given as “significantly reduced”.
